From PubChem BioAssay (NCI)
Where “and” joins values, the source holds several entries; their conditions need not be identical. Equal values may be shown once.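 Each compound was tested at five concentrations against cells in 96-well plates for 48 hours. The concentration for 50% growth inhibition is given as GI50. The concentration for full growth arrest is given as TGI.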

Key:
Experiment in all cases: NCI tumour cell line growth inhibition, 48 h
SR leukemia = system: SR leukemia
OVCAR-3 ovarian = system: OVCAR-3 ovarian
CCRF-CEM leukemia = system: CCRF-CEM leukemia
HOP-18 NSCLC = system: HOP-18 NSCLC
ACHN renal = system: ACHN renal
HCT-116 colon = system: HCT-116 colon
EKVX NSCLC = system: EKVX NSCLC
KM20L2 colon = system: KM20L2 colon
UO-31 renal = system: UO-31 renal
SK-OV-3 ovarian = system: SK-OV-3 ovarian
MALME-3M melanoma = system: MALME-3M melanoma
UACC-62 melanoma = system: UACC-62 melanoma
HT29 colon = system: HT29 colon
HOP-92 NSCLC = system: HOP-92 NSCLC
LOX IMVI melanoma = system: LOX IMVI melanoma
COLO 205 colon = system: COLO 205 colon
LXFL 529 NSCLC = system: LXFL 529 NSCLC
RXF 393 renal = system: RXF 393 renal
HL-60(TB) leukemia = system: HL-60(TB) leukemia
SNB-19 CNS = system: SNB-19 CNS
A549 NSCLC = system: A549 NSCLC
SK-MEL-5 melanoma = system: SK-MEL-5 melanoma
SK-MEL-28 melanoma = system: SK-MEL-28 melanoma
DMS 273 small cell lung = system: DMS 273 small cell lung
NCI-H226 lung = system: NCI-H226 lung
NCI-H460 lung = system: NCI-H460 lung
RXF-631 renal = system: RXF-631 renal
SW-620 colon = system: SW-620 colon
HCT-15 colon = system: HCT-15 colon
K-562 leukemia = system: K-562 leukemia
NCI-H23 lung = system: NCI-H23 lung
DLD-1 colon = system: DLD-1 colon
SN12C renal = system: SN12C renal
RPMI-8226 leukemia = system: RPMI-8226 leukemia
SF-539 CNS = system: SF-539 CNS
SNB-78 CNS = system: SNB-78 CNS
XF 498 CNS = system: XF 498 CNS
OVCAR-8 ovarian = system: OVCAR-8 ovarian
MOLT-4 leukemia = system: MOLT-4 leukemia
TK-10 renal = system: TK-10 renal
SNB-75 CNS = system: SNB-75 CNS
SK-MEL-2 melanoma = system: SK-MEL-2 melanoma
786-0 renal = system: 786-0 renal
UACC-257 melanoma = system: UACC-257 melanoma
SF-268 CNS = system: SF-268 CNS
NCI-H522 lung = system: NCI-H522 lung
IGROV1 ovarian = system: IGROV1 ovarian
OVCAR-4 ovarian = system: OVCAR-4 ovarian
A498 renal = system: A498 renal
CAKI-1 renal = system: CAKI-1 renal
U251 CNS = system: U251 CNS
M19-MEL melanoma = system: M19-MEL melanoma
KM12 colon = system: KM12 colon
M14 melanoma = system: M14 melanoma
HOP-62 NSCLC = system: HOP-62 NSCLC
DMS 114 small cell lung = system: DMS 114 small cell lung
OVCAR-5 ovarian = system: OVCAR-5 ovarian
HCC-2998 colon = system: HCC-2998 colon
SF-295 CNS = system: SF-295 CNS
MDA-N = system: MDA-N
MDA-MB-231 breast = system: MDA-MB-231 breast
SN12K1 renal = system: SN12K1 renal
MCF7 breast = system: MCF7 breast
NCI/ADR-RES ovarian = system: NCI/ADR-RES ovarian
P388/ADR leukemia = system: P388/ADR leukemia
P388 leukemia = system: P388 leukemia

## CCCCCCCCOCC(O)CO (stereo not given)
SR leukemia
  TGI: > 100 µM
OVCAR-3 ovarian
  TGI: > 100 µM
CCRF-CEM leukemia
  TGI: 65 µM
HOP-18 NSCLC
  TGI: > 100 µM
ACHN renal
  TGI: > 100 µM
HCT-116 colon
  TGI: > 100 µM
EKVX NSCLC
  TGI: > 100 µM
KM20L2 colon
  TGI: > 100 µM
UO-31 renal
  TGI: > 100 µM
SK-OV-3 ovarian
  TGI: > 100 µM
MALME-3M melanoma
  TGI: > 100 µM
UACC-62 melanoma
  TGI: > 100 µM
HT29 colon
  TGI: > 100 µM
HOP-92 NSCLC
  TGI: > 100 µM
LOX IMVI melanoma
  TGI: > 100 µM
COLO 205 colon
  TGI: > 100 µM
LXFL 529 NSCLC
  TGI: > 100 µM
RXF 393 renal
  TGI: > 100 µM
HL-60(TB) leukemia
  TGI: > 100 µM
SNB-19 CNS
  TGI: > 100 µM
A549 NSCLC
  TGI: > 100 µM
SK-MEL-5 melanoma
  TGI: > 100 µM
SK-MEL-28 melanoma
  TGI: > 100 µM
DMS 273 small cell lung
  TGI: > 100 µM
NCI-H226 lung
  TGI: > 100 µM
NCI-H460 lung
  TGI: > 100 µM
RXF-631 renal
  TGI: > 100 µM
SW-620 colon
  TGI: > 100 µM
HCT-15 colon
  TGI: > 100 µM
K-562 leukemia
  TGI: > 100 µM
NCI-H23 lung
  TGI: > 100 µM
DLD-1 colon
  TGI: > 100 µM
SN12C renal
  TGI: > 100 µM
RPMI-8226 leukemia
  TGI: > 100 µM
SF-539 CNS
  TGI: > 100 µM
SNB-78 CNS
  TGI: > 100 µM
XF 498 CNS
  TGI: > 100 µM
OVCAR-8 ovarian
  TGI: > 100 µM
MOLT-4 leukemia
  TGI: > 100 µM
TK-10 renal
  TGI: > 100 µM
SNB-75 CNS
  TGI: > 100 µM
SK-MEL-2 melanoma
  TGI: > 100 µM
786-0 renal
  TGI: > 100 µM
UACC-257 melanoma
  TGI: > 100 µM
SF-268 CNS
  TGI: > 100 µM
NCI-H522 lung
  TGI: > 100 µM
IGROV1 ovarian
  TGI: > 100 µM
OVCAR-4 ovarian
  TGI: > 100 µM
A498 renal
  TGI: > 100 µM
CAKI-1 renal
  TGI: > 100 µM
U251 CNS
  TGI: > 100 µM
M19-MEL melanoma
  TGI: > 100 µM
KM12 colon
  TGI: > 100 µM
M14 melanoma
  TGI: > 100 µM
HOP-62 NSCLC
  TGI: > 100 µM
DMS 114 small cell lung
  TGI: > 100 µM
OVCAR-5 ovarian
  TGI: > 100 µM
HCC-2998 colon
  TGI: > 100 µM
SF-295 CNS
  TGI: > 100 µM

## C[C@H]1C/C=C/[C@H]2[C@@H]3O[C@]3(C)[C@@H](C)[C@H]3[C@H](Cc4ccccc4)NC(=O)[C@]32OC(=O)O/C=C/[C@@](C)(O)C1=O
OVCAR-3 ovarian
  GI50: 0.025 µM
CCRF-CEM leukemia
  GI50: 0.0125 µM and 0.025 µM
  TGI: 67.7 µM and 84.6 µM and 71.5 µM
HOP-18 NSCLC
  GI50: < 0.0116 µM
  TGI: 0.162 µM
HCT-116 colon
  GI50: 0.0578 µM and 0.0207 µM and 0.0301 µM
  TGI: 6.75 µM and 16.3 µM and 33.6 µM
EKVX NSCLC
  GI50: 0.065 µM and 0.121 µM
KM20L2 colon
  GI50: 0.0125 µM
  TGI: > 92.3 µM and 125 µM and > 250 µM
UO-31 renal
  TGI: 0.0499 µM
SK-OV-3 ovarian
  GI50: 0.025 µM
MALME-3M melanoma
  GI50: 0.0212 µM
  TGI: 2.91 µM and 3.5 µM and 0.877 µM
MDA-N
  TGI: 54 µM
UACC-62 melanoma
  GI50: 0.0652 µM and 0.025 µM
MDA-MB-231 breast
  TGI: 3.36 µM
HT29 colon
  GI50: 0.0465 µM and 0.025 µM
  TGI: 99.2 µM and 125 µM and > 250 µM
HOP-92 NSCLC
  TGI: 0.0591 µM and 0.0877 µM
LOX IMVI melanoma
  GI50: < 0.01 µM and 0.025 µM
SN12K1 renal
  GI50: 0.0125 µM
COLO 205 colon
  GI50: 0.0194 µM and 0.0125 µM and 0.025 µM
  TGI: 49.2 µM and 98.6 µM and 70.8 µM
RXF 393 renal
  GI50: 0.0125 µM
HL-60(TB) leukemia
  GI50: 0.153 µM and 0.0973 µM
  TGI: 11.3 µM and 2.95 µM and 4.97 µM
SNB-19 CNS
  GI50: 0.0174 µM
A549 NSCLC
  GI50: 0.0462 µM
SK-MEL-5 melanoma
  GI50: 0.0539 µM and 0.0351 µM
SK-MEL-28 melanoma
  GI50: 0.0204 µM and 0.047 µM
MCF7 breast
  GI50: 0.0125 µM and 0.025 µM
  TGI: 64.4 µM and 125 µM and 67.2 µM
DMS 273 small cell lung
  GI50: 0.0125 µM
  TGI: > 96.8 µM and 64.2 µM
NCI-H226 lung
  GI50: 0.025 µM
NCI-H460 lung
  GI50: 0.0125 µM and 0.025 µM
  TGI: 43.8 µM and 125 µM and 36.9 µM
HCT-15 colon
  TGI: 56.6 µM
NCI/ADR-RES ovarian
  GI50: 34 µM and 33.3 µM
  TGI: > 81.9 µM and 125 µM and 160 µM
K-562 leukemia
  GI50: 0.0125 µM and 0.025 µM
  TGI: 91.2 µM and 125 µM and > 250 µM
NCI-H23 lung
  GI50: 0.17 µM and 0.13 µM
SN12C renal
  GI50: < 0.025 µM
P388/ADR leukemia
  GI50: 0.434 µM and 0.194 µM and 0.69 µM
  TGI: 10.5 µM and 14 µM and 40.9 µM
RPMI-8226 leukemia
  GI50: 0.235 µM and 0.0493 µM
  TGI: 76.2 µM and 44.9 µM and 32.2 µM
SF-539 CNS
  GI50: 0.0125 µM and 0.025 µM
SNB-78 CNS
  GI50: 0.024 µM and 0.025 µM
XF 498 CNS
  GI50: < 0.025 µM
OVCAR-8 ovarian
  GI50: 15 µM
  TGI: 89.7 µM and 125 µM and > 250 µM
MOLT-4 leukemia
  GI50: 0.289 µM and 0.052 µM
SNB-75 CNS
  GI50: 0.025 µM
SK-MEL-2 melanoma
  GI50: 34.2 µM
  TGI: 38.6 µM and 125 µM
786-0 renal
  TGI: 63.5 µM
UACC-257 melanoma
  GI50: 0.127 µM and 0.0594 µM
  TGI: 29.9 µM and 24.1 µM and 49.8 µM
SF-268 CNS
  GI50: 0.0125 µM and 0.025 µM
NCI-H522 lung
  GI50: 0.0125 µM and 0.025 µM
  TGI: 4.24 µM and 12.3 µM and 39.8 µM
IGROV1 ovarian
  GI50: 0.0703 µM and 0.0723 µM and 0.025 µM
  TGI: > 33.5 µM and 125 µM and > 250 µM
OVCAR-4 ovarian
  GI50: 0.396 µM
  TGI: > 79.2 µM and 46.3 µM and > 250 µM
P388 leukemia
  TGI: 15.3 µM and 125 µM and 45.6 µM
A498 renal
  GI50: 0.0126 µM
  TGI: 0.0665 µM and 0.527 µM
CAKI-1 renal
  TGI: 0.0428 µM
U251 CNS
  GI50: 0.025 µM
  TGI: 1.14 µM and 4.02 µM and 0.424 µM
M19-MEL melanoma
  GI50: 0.0356 µM and 0.025 µM
  TGI: 24.2 µM and 38.9 µM and 56.8 µM
KM12 colon
  GI50: 11.7 µM and 29.1 µM
  TGI: 125 µM and > 250 µM
M14 melanoma
  TGI: 25.4 µM
HOP-62 NSCLC
  GI50: 0.0125 µM and 0.025 µM
  TGI: 0.185 µM and 0.164 µM and 0.067 µM
DMS 114 small cell lung
  GI50: 0.0706 µM and 0.025 µM
  TGI: 9.99 µM and 20.2 µM and 33.3 µM
OVCAR-5 ovarian
  TGI: > 95.4 µM
HCC-2998 colon
  GI50: 0.155 µM and 0.342 µM
SF-295 CNS
  GI50: 0.0484 µM and 0.025 µM
